Structures are written as SMILES. ≈ marks a conversion by molar mass, not a printed value. Structures can show the parent of a compound that is named as a salt. Where two headings read alike, the source gives them in different places. A value given as a limit tells only on which side of the number the result lay.

The text below walks through data of patent publication EP0246786A1, “N-1 subsituted sulfonylaminocarbonyl, C-4 substituted monobactams” (THE UPJOHN COMPANY, priority 1986, dated 1987).

Holding throughout (experiment): MIC by agar dilution (in vitro antimicrobial testing)
Common to all, as to assay type: cell-based

In experiment [1] the test system is Ps. aeruginosa. The settings on record: Pseudomonas aeruginosa, 20 h, 35°C, read-out: Minimum Inhibitory Concentration. How it is done: (§1) Compounds of the invention are tested for in vitro antimicrobial activity using standard testing procedures such as the determination of minimum inhibitory concentration (MIC) by agar dilution as described in "Methods for Dilution Antimicrobial Susceptibility Tests for Bacteria That Grow Aerobically" (MF-T) Published January 1983 by the National Committee for Clinical Laboratory Standards, 771 East Lancaster Avenue, Villanova, PA 19084. Briefly, MIC values are determined in unsupple- mented Mueller Hinton Agar (MHA). The compounds tested are diluted serially into molten MHA at 47°C. The agar is poured into petri dishes and allowed to harden. The various bacteria used for testing are grown overnight on MHA at 35°C and transferred to Tryptiease Soy Broth (TSB) until a turbidity of 0.5 McFarland standard is obtained. The bacteria are diluted one to twenty in TSB and inoculated on the plates (1 µl using a Steers replicator).

Experiment [2] concerns E. coli. The settings on record: Escherichia coli, 20 h, 35°C, read-out: Minimum Inhibitory Concentration. As for the experimental part: as §1
Experiment [3] relates to K.pneumoniae. Conditions: Klebsiella pneumoniae, read-out: Minimum Inhibitory Concentration. How it is done:
as §1

Experiment [4] concerns K. oxytoca. Conditions: Klebsiella oxytoca, read-out: Minimum Inhibitory Concentration. How it is done:
as §1

[5] abbreviates: Ps. aeruginosa Culture No. 231, Mueller Hinton Agar.
The mark [6] stands for this setting: Ps. aeruginosa Culture No. 6432, Mueller Hinton Agar.
Setting [7] is: Ps. aeruginosa Culture No. 9191, Mueller Hinton Agar.
The mark [8] stands for this setting: E. coli Culture No. 9379, Mueller Hinton Agar.
[9] abbreviates: E. coli Culture No. 9380, Mueller Hinton Agar.
Setting [10] is: E. coli Culture No. 9451, Mueller Hinton Agar.

Consider `COC(=O)OC[C@@H]1[C@H](NC(=O)/C(=N\OCC(=O)O)c2csc(N)n2)C(=O)N1C(=O)NS(=O)(=O)N1CCN(NC(=O)c2cc(=O)c(O)c[nH]2)C1=O` (racemic) [Compound A, cis-(±)-3-[2-(2-Amino-4-thiazolyl)-(Z)-2-(carboxy-methoxyimino)acetamido]-1-[(5-hydroxy-4-pyridon-2-yl)carbonylamino-1-(2-imidazolidone-3-yl)sulfonylaminocarbonyl]-4-[(methoxycarbonyl)-oxymethyl]-2-azetidinone, dipotassium salt], for which the MIC is 4 µg/mL in experiment [1] (setting [5]); 1 µg/mL in experiment [1] (setting [6]); 4 µg/mL in experiment [1] (setting [7]); at most 0.015 µg/mL in experiment [2] (setting [8]); at most 0.015 µg/mL in experiment [2] (setting [9]); at most 0.015 µg/mL in experiment [2] (setting [10]). Also, the MIC was 1 µg/mL in experiment [3] (K.pneumoniae Culture No. 58, Mueller Hinton Agar, 35°C, 20 hours) and 0.06 µg/mL in experiment [4] (K. oxytoca Culture No. 9384, Mueller Hinton Agar, 35°C, 20 hours).

Take `CC1C(NC(=O)C(=NOC(C)(C)C(=O)O)c2csc(N)n2)C(=O)N1S(=O)(=O)O` (stereo not shown) [Compound B, 2-[[[1-(2-amino-4-thiazolyl)-2-[(2-methyl-4-oxo-1-sulfo-3-azetidinyl)amino]-2-oxoethylidene]amino]oxy]-2-methylpropanoic acid]: the MIC in experiment [1] (setting [5]) came to 8 µg/mL (≈ 18.4 µM); in experiment [1] (setting [6]), 8 µg/mL (≈ 18.4 µM); in experiment [1] (setting [7]), 2 µg/mL (≈ 4.59 µM); in experiment [2] (setting [8]), 0.03 µg/mL (≈ 0.0689 µM); in experiment [2] (setting [9]), 0.06 µg/mL (≈ 0.138 µM); in experiment [2] (setting [10]), 0.06 µg/mL (≈ 0.138 µM). For the same compound, the MIC in experiment [3] (20 h) and in experiment [4] (20 h) was 0.03 µg/mL (≈ 0.0689 µM) in each case.
